# Source: the supplement of paper PMC10307832
# Compound: C1=CC2=NC=CN=C2C=C1/C=C/3\C(=O)NC(=O)S3 + O=C(CCCCCCC(=O)Nc1ccccc1)NO [Vorinostat] (partner 1 µM)
# Assay: relative viability (nuclei count vs DMSO), 5 days (fraction); higher = more cells survive
# Conditions: first compound 0.02 µM
# How it was run: (§1)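 After 5 days of treatment, lung cancer cells in 1536-well plates were fixed and stained in a single step (final 0.05% Triton X-100, 1% formaldehyde, 1 ug/ml Hoechst) and their nuclei counted on 4× images. Treatment had been applied by pin tool the day after seeding as one drug alone or as a fixed anchor-drug dose with five library-drug doses (not always all listed) in √10 steps. Relative viability is the nuclei count of treated wells divided by that of vehicle wells, and values are medians of duplicate plates.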
row,Cell Line,relative viability
1,NCI-H522,0.768
2,NCI-H727,1.23
3,NCI-H1650,0.572
4,NCI-H1993,0.734
5,SW 1573,0.519
6,NCI-H838,0.674
7,LCLC-103H,0.694
8,NCI-H520,0.879
9,NCI-H2126,0.666
10,EMC-BAC-2,0.488
11,NCI-H2085,0.729
12,HCC-366,0.293
13,NCI-H1666,0.912
14,NCI-H596,0.581
15,LK-2,0.245
16,NCI-H2087,0.536
17,NCI-H2342,0.677

row,Cell Line,relative viability
1,SK-MES-1,0.925
2,H3255,0.781
3,COR-L23,0.39
4,COR-L 105,0.694
5,IA-LM,0.884
6,LOU-NH91,0.965
7,ChaGo-K-1,0.742
8,NCI-H2170,0.732
9,NCI-H2405,1.04
10,HOP-62,0.571
11,HCC-44,0.959
12,SW 900,0.544
13,LU99A,0.425
14,BEN,0.506
15,NCI-H1648,0.435
16,HCC-78,0.464

# Same assay, conditions: first compound 0.06325 µM
row,Cell Line,relative viability
1,NCI-H522,0.839
2,NCI-H727,1.15
3,NCI-H1650,0.556
4,NCI-H1993,0.843
5,SW 1573,1.09
6,NCI-H838,0.702
7,LCLC-103H,0.804
8,NCI-H520,0.834
9,NCI-H2126,0.825
10,EMC-BAC-2,0.535
11,NCI-H2085,0.716
12,NCI-H1666,0.927
13,NCI-H596,0.59
14,LK-2,0.353
15,NCI-H2087,0.742
16,NCI-H2342,0.781

row,Cell Line,relative viability
1,SK-MES-1,0.998
2,H3255,0.884
3,COR-L23,0.486
4,COR-L 105,0.872
5,IA-LM,0.467
6,LOU-NH91,0.887
7,ChaGo-K-1,0.544
8,NCI-H2170,0.583
9,NCI-H2405,1.14
10,HOP-62,0.694
11,HCC-44,1.13
12,SW 900,0.517
13,LU99A,0.515
14,BEN,0.553
15,NCI-H1648,0.357
16,HCC-78,0.428

# Same assay, conditions: first compound 0.2 µM
row,Cell Line,relative viability
1,NCI-H522,1.22
2,NCI-H727,1.23
3,NCI-H1650,0.589
4,NCI-H1993,1.08
5,SW 1573,0.658
6,NCI-H838,0.762
7,LCLC-103H,0.846
8,NCI-H520,0.645
9,NCI-H2126,0.843
10,EMC-BAC-2,0.602
11,NCI-H2085,0.799
12,HCC-366,0.436
13,NCI-H1666,0.968
14,NCI-H596,0.646
15,LK-2,0.37
16,NCI-H2087,0.58
17,NCI-H2342,0.799

row,Cell Line,relative viability
1,SK-MES-1,1.08
2,H3255,0.835
3,COR-L23,0.471
4,COR-L 105,0.697
5,IA-LM,0.964
6,LOU-NH91,0.987
7,ChaGo-K-1,0.756
8,NCI-H2170,0.846
9,NCI-H2405,1.11
10,HOP-62,0.732
11,HCC-44,1.08
12,SW 900,0.453
13,LU99A,0.506
14,BEN,0.539
15,NCI-H1648,0.424
16,HCC-78,0.379

# Same assay, conditions: first compound 0.6325 µM
row,Cell Line,relative viability
1,NCI-H522,0.75
2,NCI-H727,1.22
3,NCI-H1650,0.525
4,NCI-H1993,0.767
5,SW 1573,0.868
6,NCI-H838,0.686
7,LCLC-103H,0.685
8,NCI-H520,0.802
9,NCI-H2126,0.801
10,EMC-BAC-2,0.452
11,NCI-H2085,0.781
12,HCC-366,0.305
13,NCI-H1666,0.984
14,NCI-H596,0.499
15,LK-2,0.213
16,NCI-H2087,0.646

row,Cell Line,relative viability
1,NCI-H2342,0.731
2,SK-MES-1,1.08
3,H3255,0.865
4,COR-L23,0.408
5,COR-L 105,0.605
6,IA-LM,0.985
7,LOU-NH91,0.908
8,ChaGo-K-1,0.662
9,NCI-H2170,0.776
10,NCI-H2405,1.08
11,HOP-62,0.581
12,HCC-44,1.13
13,LU99A,0.42
14,BEN,0.52
15,HCC-78,0.449

# Same assay, conditions: first compound 2 µM
row,Cell Line,relative viability
1,NCI-H522,0.795
2,NCI-H727,0.679
3,NCI-H1650,0.512
4,NCI-H1993,0.008
5,SW 1573,0.444
6,NCI-H838,0.579
7,LCLC-103H,0.651
8,NCI-H520,0.677
9,NCI-H2126,0.462
10,EMC-BAC-2,0.222
11,NCI-H2085,0.748
12,HCC-366,0.204
13,NCI-H1666,0.785
14,NCI-H596,0.6
15,LK-2,0.169
16,NCI-H2087,0.469
17,NCI-H2342,0.636

row,Cell Line,relative viability
1,SK-MES-1,0.829
2,H3255,0.67
3,COR-L23,0.345
4,COR-L 105,0.835
5,IA-LM,0.968
6,LOU-NH91,0.727
7,ChaGo-K-1,0.652
8,NCI-H2170,0.878
9,NCI-H2405,0.526
10,HOP-62,0.571
11,HCC-44,1.17
12,SW 900,0.647
13,LU99A,0.268
14,BEN,0.477
15,NCI-H1648,0.423
16,HCC-78,0.349

# Compound: CCN1CCN(c2ccc(Nc3cc(N(C)C(=O)Nc4c(Cl)c(OC)cc(OC)c4Cl)ncn3)cc2)CC1 [BGJ398] + Cc1cc(Nc2cc(N3CCN(C)CC3)nc(Sc3ccc(NC(=O)C4CC4)cc3)n2)n[nH]1 [Tozasertib] (partner 0.1 µM)
# Assay: as above
# Conditions: first compound 0.01 µM
# How it was run: as §1
row,Cell Line,relative viability
1,NCI-H522,0.5
2,NCI-H1623,0.427
3,NCI-H727,0.574
4,NCI-H1650,0.498
5,NCI-H1993,0.526
6,SW 1573,0.182
7,NCI-H838,0.317
8,LCLC-103H,0.429
9,NCI-H520,0.424
10,NCI-H2126,0.892
11,EMC-BAC-2,0.28
12,NCI-H2085,0.961
13,HCC-366,0.128
14,NCI-H1666,0.702
15,NCI-H596,0.777
16,LK-2,0.202
17,NCI-H2087,0.219

row,Cell Line,relative viability
1,NCI-H2342,0.415
2,SK-MES-1,0.87
3,H3255,0.628
4,COR-L23,0.216
5,COR-L 105,0.291
6,LOU-NH91,0.656
7,ChaGo-K-1,0.229
8,NCI-H2170,0.804
9,NCI-H2405,0.727
10,HOP-62,0.375
11,HCC-44,0.77
12,SW 900,0.55
13,LU99A,0.286
14,BEN,0.587
15,NCI-H1648,0.304
16,HCC-78,0.355

# Same assay, conditions: first compound 0.03162 µM
row,Cell Line,relative viability
1,NCI-H522,0.552
2,NCI-H1623,0.407
3,NCI-H727,0.751
4,NCI-H1993,0.546
5,SW 1573,0.171
6,NCI-H838,0.305
7,LCLC-103H,0.445
8,NCI-H520,0.421
9,NCI-H2126,0.825
10,EMC-BAC-2,0.314
11,NCI-H2085,0.877
12,HCC-366,0.111
13,NCI-H1666,0.619
14,NCI-H596,0.856
15,LK-2,0.168
16,NCI-H2087,0.255
17,NCI-H2342,0.49
18,SK-MES-1,0.892
19,COR-L23,0.248
20,COR-L 105,0.346
21,ChaGo-K-1,0.24
22,NCI-H2170,0.714
23,NCI-H2405,0.812
24,HOP-62,0.399
25,HCC-44,0.947
26,SW 900,0.552
27,LU99A,0.282
28,BEN,0.488
29,NCI-H1648,0.58
30,HCC-78,0.461

# Same assay, conditions: first compound 0.1 µM
row,Cell Line,relative viability
1,NCI-H522,0.445
2,NCI-H1623,0.448
3,NCI-H727,0.816
4,NCI-H1650,0.464
5,NCI-H1993,0.651
6,SW 1573,0.185
7,NCI-H838,0.262
8,LCLC-103H,0.424
9,NCI-H520,0.321
10,NCI-H2126,0.911
11,EMC-BAC-2,0.3
12,NCI-H2085,0.74
13,HCC-366,0.092
14,NCI-H1666,0.606
15,NCI-H596,0.775
16,LK-2,0.157
17,NCI-H2087,0.24

row,Cell Line,relative viability
1,NCI-H2342,0.655
2,SK-MES-1,0.829
3,H3255,0.472
4,COR-L23,0.205
5,COR-L 105,0.339
6,LOU-NH91,0.698
7,ChaGo-K-1,0.19
8,NCI-H2170,0.687
9,NCI-H2405,0.712
10,HOP-62,0.411
11,HCC-44,1.07
12,SW 900,0.495
13,LU99A,0.261
14,BEN,0.543
15,NCI-H1648,0.469
16,HCC-78,0.445

# Same assay, conditions: first compound 0.3162 µM
row,Cell Line,relative viability
1,NCI-H522,0.586
2,NCI-H1623,0.455
3,NCI-H727,0.585
4,NCI-H1650,0.289
5,NCI-H1993,0.581
6,SW 1573,0.189
7,NCI-H838,0.234
8,LCLC-103H,0.487
9,NCI-H520,0.273
10,NCI-H2126,0.927
11,EMC-BAC-2,0.276
12,NCI-H2085,0.732
13,HCC-366,0.0966
14,NCI-H1666,0.587
15,NCI-H596,0.744
16,LK-2,0.149
17,NCI-H2087,0.26

row,Cell Line,relative viability
1,NCI-H2342,0.536
2,SK-MES-1,0.785
3,H3255,0.743
4,COR-L23,0.188
5,COR-L 105,0.418
6,LOU-NH91,0.541
7,ChaGo-K-1,0.215
8,NCI-H2170,0.694
9,NCI-H2405,0.727
10,HOP-62,0.395
11,HCC-44,1.1
12,SW 900,0.484
13,LU99A,0.197
14,BEN,0.513
15,NCI-H1648,0.399
16,HCC-78,0.419

# Same assay, conditions: first compound 1 µM
row,Cell Line,relative viability
1,NCI-H522,0.483
2,NCI-H1623,0.447
3,NCI-H727,0.605
4,NCI-H1650,0.356
5,NCI-H1993,0.616
6,SW 1573,0.171
7,NCI-H838,0.201
8,LCLC-103H,0.341
9,NCI-H520,0.271
10,NCI-H2126,0.868
11,EMC-BAC-2,0.312
12,NCI-H2085,0.669
13,HCC-366,0.0852
14,NCI-H1666,0.558
15,NCI-H596,0.731
16,LK-2,0.173
17,NCI-H2087,0.277

row,Cell Line,relative viability
1,NCI-H2342,0.505
2,SK-MES-1,0.857
3,H3255,0.608
4,COR-L23,0.182
5,COR-L 105,0.324
6,LOU-NH91,0.737
7,ChaGo-K-1,0.226
8,NCI-H2170,0.78
9,NCI-H2405,0.712
10,HOP-62,0.364
11,HCC-44,0.698
12,SW 900,0.429
13,LU99A,0.265
14,BEN,0.527
15,NCI-H1648,0.44
16,HCC-78,0.476
